Assay results from patent publication US4206215A, “Antimicrobial bis-[4-(substituted-amino)-1-pyridinium]alkanes” (Sterling Drug Inc., priority 1977, dated 1980).
Read-outs that look alike come from different tables or passages of the source.

How the values were obtained:
[1] = system: young adult male Swiss-Webster strain albino mice; assay: Acute oral toxicity (ALD50); assay type: in vivo
Method: (§1) The acute oral toxicity (ALD50) of several representative examples was determined as follows: Groups of 3 young adult male Swiss-Webster strain albino mice were fasted approximately 4 hours before medication and then medicated once orally by stomach tube.

[2] = system: P. mirab. MGH-1; assay: In vitro antibacterial activity, MIC (modified Autotiter method); assay type: cell-based, Proteus mirabilis; settings: 18-20 hours at 37° C.
Procedure, shortened: (§2)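 An automated twofold dilution method was used. Compound solution (1,000 mcg./ml., stock) is stepped down in sterile water, and inoculated double-strength semisynthetic glucose broth is dispensed to each cup, so final drug concentrations range 500 to 0.06 mcg./ml.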

[3] = system: S. Aureus Smith; assay: as above; assay type: cell-based, Staphylococcus aureus; settings: 18-20 hours at 37° C.
Procedure, shortened: as §2

[4] = system: C. albicans Wisc.; assay: In vitro antifungal activity, MIC (modified Autotiter method); assay type: cell-based, Candida albicans; settings: 18-20 hours at 37° C.
Procedure, shortened: as §2

[5] = system: C. albicans 10231; assay: as above; assay type: cell-based, Candida albicans; settings: 18-20 hours at 37° C.
Procedure, shortened: as §2

[6] = system: Herpes simplex type 2 virus; assay: Virucidal activity in vitro (plaque inhibition test); assay type: cell-based; settings: 2 mg. of test compound on growth medium
Method: Virucidal activity of representative examples against Herpes simplex type 2 virus was determined in vitro employing a procedure similar to the plaque inhibition test for detection of specific inhibitors of DNA-containing viruses published by E. C. Herrmann, Jr., Proc. Soc. Exp. Biol. Med. 107, 142 (1961) wherein 2 mg. of the test compound was placed on the surface of the growth medium.

[7] = system: E. coli 100/B22; assay: In vitro antibacterial activity, MIC (modified Autotiter method); assay type: cell-based, Escherichia coli; settings: for MIC E. coli 100/B22: 18-20 hours at 37° C.
Procedure, shortened: as §2

[8] = system: E. coli Vogel; assay: as above; assay type: cell-based, Escherichia coli; settings: 18-20 hours at 37° C.
Procedure, shortened: as §2

[9] = system: E. coli AB1932-1; assay: as above; assay type: cell-based, Escherichia coli; settings: 18-20 hours at 37° C.
Procedure, shortened: as §2

[10] = system: T. menta. 9129; assay: In vitro antifungal activity, MIC (modified Autotiter method); assay type: cell-based, Trichophyton mentagrophytes; settings: 18-20 hours at 37° C.
Procedure, shortened: as §2

[11] = system: K. pneum. 39645; assay: In vitro antibacterial activity, MIC (modified Autotiter method); assay type: cell-based, Klebsiella pneumoniae; settings: 18-20 hours at 37° C.
Procedure, shortened: as §2

[12] = system: S. pyogen. C203; assay: as above; assay type: cell-based, Streptococcus pyogenes; settings: 18-20 hours at 37° C.
Procedure, shortened: as §2

[13] = system: E. Coli ATCC 8739; assay: Effect of serum on bacteriostatic activity (serial tube dilution test); assay type: cell-based, Escherichia coli; settings: for MIC: Escherichia coli, ATCC8739
Method: (§3) Antibacterial effectiveness in the presence of serum was determined for representative examples by the standard serial tube dilution test wherein paired comparisons of minimum inhibitory concentrations (MIC) were determined in the absence and in the presence of heat inactivated (30 min. at 56° C.) horse serum (40%) in the test medium. The results are expressed as the fold increase in MIC (mcg./ml.) versus Staphyloccocus aureus and Escherichia coli caused by the presence of serum and are presented in Table B hereinbelow.

[14] = system: S. Aureus ATCC 6538; assay: as above; assay type: cell-based, Staphyloccocus aureus; settings: for MIC: Staphylococcus aureus, ATCC6538
Method: as §3

[15] = system: A. niger 16404; assay: In vitro antifungal activity, MIC (modified Autotiter method); assay type: cell-based, Aspergillus niger; settings: 18-20 hours at 37° C.
Procedure, shortened: as §2

[16] = system: Ps. aerug. MGH-2; assay: In vitro antibacterial activity, MIC (modified Autotiter method); assay type: cell-based, Pseudomonas aeruginosa; settings: 18-20 hours at 37° C.
Procedure, shortened: as §2

[17] = Acute oral toxicity (ALD50); assay type: in vivo; settings: mouse, in vivo, po, mice, read-out: 7-Day ALD50
Method: as §1

[18] = 125 mg/kg oral, suspension in 1% G.T.
[19] = 250 mg/kg oral, suspension in 1% G.T.
[20] = 500 mg/kg oral, suspension in 1% G.T.
[21] = 1000 mg/kg oral, suspension in 1% G.T.
[22] = 125 mg/kg oral, aqueous solution
[23] = 250 mg/kg oral, aqueous solution
[24] = 500 mg/kg oral, aqueous solution
[25] = 1000 mg/kg oral, aqueous solution

| Compound | MIC P. mirab. MGH-1 [2] | MIC S. Aureus Smith [3] | MIC C. albicans Wisc. [4] | MIC C. albicans 10231 [5] | MIC E. coli 100/B22 [7] | MIC E. coli Vogel [8] | MIC E. coli AB1932-1 [9] | MIC T. menta. 9129 [10] | MIC K. pneum. 39645 [11] | MIC S. pyogen. C203 [12] | MIC A. niger 16404 [15] | MIC Ps. aerug. MGH-2 [16] | LD50 at 168 h ([17]; aqueous solution) | Mortality 7 Days [1, 22] | Mortality 7 Days [1, 23] | Mortality 24 Hrs [1, 23] | Mortality 7 Days [1, 24] | Mortality 24 Hrs [1, 24] | Mortality 7 Days [1, 25] | Mortality 24 Hrs [1, 25] | other results |
| --- | --- | --- | --- | --- | --- | --- | --- | --- | --- | --- | --- | --- | --- | --- | --- | --- | --- | --- | --- | --- | --- |
| CCCCCCCNc1cc[n+](CCCCCCCCCCCCCC[n+]2ccc(NCCCCCCC)cc2)cc1 [Example 1D, 1,14-bis-[4-(heptylamino)-1-pyridinium]-tetradecane dibromide] | 1.54 µg/mL | 0.77 µg/mL | 1.54 µg/mL | 1.54 µg/mL | 0.77 µg/mL | 1.54 µg/mL | 3.0 µg/mL | 0.77 µg/mL | 0.77 µg/mL | 1.95 µg/mL | 3.0 µg/mL | 3.0 µg/mL | – | – | – | – | – | – | – | – | Mortality 7 Days [1, 18]: 0/3; Mortality 24 Hrs [1, 18]: 0/3; Mortality 7 Days [1, 19]: 0/3; Mortality 24 Hrs [1, 19]: 0/3; Mortality 7 Days [1, 20]: 1/3; Mortality 24 Hrs [1, 20]: 1/3; Mortality 7 Days [1, 21]: 2/3; Mortality 24 Hrs [1, 21]: 2/3; 7-Day ALD50 ([1]; oral, suspension in 1% gum tragacanth, 10080 min): 750 mg/kg; Virucidal activity against Herpes simplex type 2 virus [6]: active; Fold Increase in MIC E. Coli ATCC 8739 ([13]; 40% vs 0% horse serum): 16 fold; MIC ([13]; 40% heat inactivated horse serum, read-out: MIC E. Coli ATCC 8739 40% Serum): 25 µg/mL; MIC ([13]; read-out: MIC E. Coli ATCC 8739 0% Serum): 1.56 µg/mL; Fold Increase in MIC S. Aureus ATCC 6538 ([14]; 40% vs 0% horse serum): 16 fold; MIC ([14]; 40% heat inactivated horse serum, read-out: MIC S. Aureus ATCC 6538 40% Serum): 3.12 µg/mL; MIC ([14]; read-out: MIC S. Aureus ATCC 6538 0% Serum): 0.195 µg/mL |
| CCCCCCCNc1cc[n+](CCCCCCCCCCCCCC[n+]2ccc(NCCCCCCC)cc2)cc1 [Example 2, 1,14-bis-[4-(heptylamino)-1-pyridinium]tetradecane dichloride] | 3.9 µg/mL | – | 7.8 µg/mL | 3.9 µg/mL | – | – | 1.0 µg/mL | – | 3.9 µg/mL | – | 7.8 µg/mL | – | – | – | – | – | – | – | – | – | LD50 at 168 h ([17]; suspension in 1% gum tragacanth): 1000 mg/kg; Mortality 7 Days [1, 18]: 0/3; Mortality 24 Hrs [1, 18]: 0/3; Mortality 7 Days [1, 19]: 1/3; Mortality 24 Hrs [1, 19]: 0/3; Mortality 7 Days [1, 20]: 0/3; Mortality 24 Hrs [1, 20]: 0/3; Mortality 7 Days [1, 21]: 1/3; Mortality 24 Hrs [1, 21]: 0/3; MIC ([3]; Staphylococcus aureus, 20 h, read-out: MIC S. Aureus Smith): 1 µg/mL; MIC ([7]; Escherichia coli, 100/B22, 20 h, read-out: MIC E. coli 100/B22, 18-20 hours at 37° C.): 1 µg/mL; MIC ([8]; Escherichia coli, 20 h, read-out: MIC E. coli Vogel): 1.95 µg/mL; MIC ([10]; Trichophyton mentagrophytes, 20 h, read-out: MIC T. menta. 9129): 1 µg/mL; MIC ([12]; Streptococcus pyogenes, 20 h, read-out: MIC S. pyogen. C203): 1 µg/mL; MIC ([16]; Pseudomonas aeruginosa, 20 h, read-out: MIC Ps. aerug. MGH-2): 1.95 µg/mL |
| CCCCCCNc1cc[n+](CCCCCCCCCCCCCC[n+]2ccc(NCCCCCC)cc2)cc1 [Example 6] | 3.9 µg/mL | 0.5 µg/mL | 1.95 µg/mL | 1.0 µg/mL | 0.5 µg/mL | 1.0 µg/mL | 0.5 µg/mL | 0.5 µg/mL | 1.0 µg/mL | 1.95 µg/mL | 3.9 µg/mL | 3.9 µg/mL | 315 mg/kg | 1/3 | 1/3 | 0/3 | 2/3 | 2/3 | 3/3 | 3/3 | Mortality 24 Hrs [1, 22]: 1/3 |
| CCCCCCCCNc1cc[n+](CCCCCCCC[n+]2ccc(NCCCCCCCC)cc2)cc1 [Example 12, 1,8-Bis-[4-(octylamino)-1-pyridinium]octane dichloride] | 3.9 µg/mL | 0.25 µg/mL | 1.0 µg/mL | 1.0 µg/mL | 0.5 µg/mL | 1.0 µg/mL | 1.0 µg/mL | 1.0 µg/mL | 1.0 µg/mL | 0.5 µg/mL | 7.8 µg/mL | 7.8 µg/mL | 750 mg/kg | 0/3 | 0/3 | 0/3 | 1/3 | 1/3 | 2/3 | 2/3 | Mortality 24 Hrs [1, 22]: 0/3 |
| CCCCCCCNc1cc[n+](CCCCCCCC[n+]2ccc(NCCCCCCC)cc2)cc1 [Example 23] | 62.6 µg/mL | 0.5 µg/mL | 1.95 µg/mL | 1.0 µg/mL | 1.95 µg/mL | 1.95 µg/mL | 1.0 µg/mL | 1.95 µg/mL | 1.95 µg/mL | 1.0 µg/mL | 7.8 µg/mL | 31.3 µg/mL | 625 mg/kg | 0/3 | 0/3 | 0/3 | 1/3 | 1/3 | 3/3 | 3/3 | Mortality 24 Hrs [1, 22]: 0/3 |
| CCCCCCCNc1cc[n+](CCCCCCCCC[n+]2ccc(NCCCCCCC)cc2)cc1 [Example 25, 1,9-Bis-[4-(heptylamino)-1-pyridinium]nonane dichloride] | 31.3 µg/mL | 0.25 µg/mL | 1.0 µg/mL | 1.0 µg/mL | 1.0 µg/mL | 1.0 µg/mL | 1.0 µg/mL | 1.0 µg/mL | 1.95 µg/mL | 0.5 µg/mL | 1.95 µg/mL | 31.3 µg/mL | 500 mg/kg | – | 1/3 | 1/3 | 1/3 | 1/3 | 3/3 | 3/3 | Autopsy, gross tissue changes ([1]; oral, 7 days, Example 25: 1000 mg./kg.): congestion of the glandular portion of the stomachs of two of the three mice was observed |
| CCCCCCCNc1cc[n+](CCCCCCCCCC[n+]2ccc(NCCCCCCC)cc2)cc1 [Example 27] | 7.8 µg/mL | 0.25 µg/mL | 1.0 µg/mL | 1.96 µg/mL | 0.5 µg/mL | 0.5 µg/mL | 1.0 µg/mL | 1.0 µg/mL | 1.0 µg/mL | 0.5 µg/mL | 3.9 µg/mL | 7.8 µg/mL | 250 mg/kg | 1/3 | 0/3 | 0/3 | 1/3 | 1/3 | 3/3 | 1/3 | Mortality 24 Hrs [1, 22]: 0/3 |
